Legend:
[1] = system: HER2-positive metastatic breast cancer; assay: open-label, multicenter study of poziotinib monotherapy in breast cancer patients, with genotype (NGS) analysis; type: in vivo, human
Experimental: Poziotinib is a pan-HER inhibitor small molecule breast cancer therapeutic agent under clinical development. […] Recently, through an open-label, multicenter, two-phase study of poziotinib monotherapy, it was evaluated whether poziotinib was an option for breast cancer patients with HER2-positive metastatic breast cancer who twice or more experienced the failure of 2 HER2 target treatments. The genetic profile of HER2-positive metastatic breast cancer was evaluated, and the potential biomarkers of poziotinib for HER2-positive metastatic breast cancer (MBC) were investigated.
The experimental method is as follows. All participants with MBC were diagnosed with HER2-positive metastatic breast cancer according to the American Society of Clinical Oncology/College of-American Pathologist Her2 guideline. Fresh tissue samples or FFPE samples were obtained from these patients and used to extract DNA and RNA for next generation sequencing (NGS).
DNA and RNA were extracted from the samples and NGS was performed thereon. Targeted deep sequencing was performed by using a customized 381 cancer gene panel (CancerSCAN™, Samsung Hospital, Inc.) and the correlation among sequencing data, immunohistochemistry, and clinical outcome was analyzed.
An effective amount of poziotinib was administered to the breast cancer patients. The prognosis of the patients was observed. Prognosis was classified into partial remission (PR), stable disease (SD), and progressive disease (PD). For each patient, progressive free survival (PFS) was also identified.
From April 2015 to February 2016, 106 patients enrolled for clinical trials. Biomarker data were available for 75 of these patients.

[2] = system: EGFR family including Her1, Her2, and Her4; details: cited from earlier work
[3] = system: cancer cells having overexpression of Her1 or Her2 or activated mutations; details: in vitro, various carcinomas; cited from earlier work
[4] = system: lung cancer cells resistant to gefitinib or erlotinib; details: cited from earlier work
transplanted tumor cells = details: xenotransplantation animal model; cited from earlier work
[5] = among the 75 patients with biomarker data

In the case of `C=CC(=O)N1CCC(Oc2cc3c(Nc4ccc(Cl)c(Cl)c4F)ncnc3cc2OC)CC1` [Poziotinib, 1-[4-[4-(3,4-dichloro-2-fluoroanilino)-7-methoxyquinazolin-6-yl]oxypiperidin-1-yl]prop-2-en-1-one], the “prognosis after poziotinib by genotype” value ([1]; BARD1 gene mutation present (mutation number=9)) is reported as “poor prognosis”, the “prognosis after poziotinib by genotype” value ([1]; CDK12 copy number amplification (42 subjects)) is reported as “good prognosis” and the “prognosis after poziotinib by genotype” value ([1]; ERBB3 gene mutation present (mutation number=10)) is reported as “poor prognosis”. The “prognosis after poziotinib by genotype” value ([1]; NOTCH gene mutation present (mutation number=13)) was “good prognosis”, the “prognosis after poziotinib by genotype” value ([1]; PIK3CA gene mutation present (mutation number=34)) was “poor prognosis” and the “prognosis after poziotinib by genotype” value ([1]; SETBP1 gene mutation present (mutation number=13)) was “poor prognosis”. The “prognosis after poziotinib by genotype” value ([1]; SH2B3 gene mutation present (mutation number=6)) was “good prognosis”, the “number of patients with partial remission (PR)” value [1, 5] was 14 and the “number of patients with progressive disease (PD)” value [1, 5] was 20. For the same molecule, the “prognosis after poziotinib by genotype” value ([1]; copy number amplification of the ERBB2 gene) was “good prognosis”, the “prognosis after poziotinib by genotype” value ([1]; copy number deletion of the BRCA1 gene) was “bad prognosis” and the “prognosis after poziotinib by genotype” value ([1]; copy number deletion of the STAT3 gene) was “bad prognosis”. For the same molecule, the “prognosis after poziotinib by genotype” value ([1]; deletion or amplification of the FGFR3 gene (copy number variations=5)) was “bad prognosis”, the “prognosis of patients with ERBB2 gene or upstream mutations” value ([1]; patients 1 to 10 of the 13 patients with ERBB2 mutations, FIG. 13) was “partial remission and stable disease” and the “inhibition of the EGFR family” value [2] was “selectively and irreversibly inhibits”. The “growth of cancer cells” value [3] was “inhibits the growth of cancer cells”, the “growth of lung cancer cells” value [4] was “effectively inhibits the growth” and the tumor growth (transplanted tumor cells) was “effectively blocks tumor growth”.

Source: patent publication US20200370102A1, “BIOMARKER INDICATING RESPONSE TO POZIOTINIB THERAPY FOR CANCER” (HANMI PHARM. CO., LTD., priority 2017, published 2020)
